# Assay results: US20230165872A1, “COMBINATION OF BCMA-DIRECTED T CELL THERAPY AND AN IMMUNOMODULATORY COMPOUND” (Juno Therapeutics, Inc., priority 2020, published 2023)
# What was measured:
# anti-BCMA CAR T cells = assay: Viability and count of anti-BCMA CAR T cells after 7-day chronic stimulation with BCMA-conjugated beads; assay type: cell-based, human
# Protocol: Cryofrozen anti-BCMA CAR T cells, produced substantially as described in Example 1 and formulated at a 1:1 ratio of CD4+ and CD8^+ T cells, were thawed. To subject cells to chronic stimulation conditions, the anti-BCMA CAR+ T cells were stimulated with 50 μg BCMA conjugated beads (diameter about 4.5 μm from a 50 μg/ml BCMA-conjugated bead composition, generated as described in Example 2) at a ratio of T cells to beads of 1:1 in the presence or absence of Compound A (iberdomide, (S)-3-[4-(4-morpholin-4-ylmethyl-benzyloxy)-1-oxo-1,3-dihydro-isoindol-2-yl]-piperidine-2,6-dione) (1 nM or 10 nM), Compound B ((S)-4-(4-(4-(((2-(2,6-dioxopiperidin-3-yl)-1-oxoisoindolin-4-yl)oxy)methyl)benzyl)piperazin-1-yl)-3-fluorobenzonitrile) (0.1 nM or 1 nM), or DMSO vehicle control. The cells were then incubated at 37° C., 5% CO2 for 7 days.
# At day 7, anti-BCMA CAR cells of all the samples were counted using a cellometer machine and stained for flow cytometric analysis. Cells were stained with a viability dye and analyzed by flow cytometry. Viability and count of anti-BCMA CAR T cells was increased in the presence of Compound A or Compound B.
# Cryofrozen anti-BCMA CAR T cells, produced substantially as described in Example 1 and formulated at a 1:1 ratio of CD4+ and CD8+ T cells, were thawed. […] The cells were then incubated at 37° C., 5% CO2 for 7 days.
# At day 7, anti-BCMA CAR cells of all the samples were counted using a cellometer machine and stained for flow cytometric analysis. Cells were stained with a viability dye and analyzed by flow cytometry.
# [1] = tested on: IMiD/CELMoD resistant cell line DF-15R; assay: Rescue: rechallenge of chronically stimulated anti-BCMA CAR T cells with DF-15R; assay type: cell-based, human; conditions: DF-15R rechallenge after 7-day chronic stimulation
# Protocol: Studies were undertaken to determine whether Compound A (iberdomide, (S)-3-[4-(4-morpholin-4-ylmethyl-benzyloxy)-1-oxo-1,3-dihydro-isoindol-2-yl]-piperidine-2,6-dione) rescued anti-BCMA CAR T cell function following chronic stimulation. To directly stimulate via CAR engagement to induce chronic stimulation of cells, anti-BCMA CAR T cells were stimulated with BCMA conjugated beads (diameter about 4.5 μm from a 50 μg/ml BCMA-conjugated bead composition, generated as described in Example 9) at a ratio of T cells to beads of 1:1. The cells were then incubated at 37° C., 5% CO2 for 7 days.
# To further elucidate the role of Compound A on the target cells compared to the CAR T cell intrinsic effects, the IMiD/CELMoD resistant cell line DF-15R was also used to rechallenge anti-BCMA CAR T cells that had been chronically stimulated for 7 days. Cytolytic activity and cytokine production following the rechallenge were assessed as described above.
# CRBN = CRBN (Homo sapiens, UniProt Q96SW2); conditions: compared with lenalidomide and pomalidomide; cited from earlier work
# [2] = tested on: DF-15(R) (multiple myeloma) cells; assay: Murine orthotopic DF-15(R) tumor model (resistant), anti-BCMA CAR T cells plus Compound A; assay type: in vivo, mouse; conditions: combination
# Protocol: Anti-tumor effects of anti-BCMA CAR T cells, alone and in combination with concurrent or delayed administration of Compound A (iberdomide, (S)-3-[4-(4-morpholin ylmethyl-benzyloxy)-1-oxo-1,3-dihydro-isoindol-2-yl]-piperidine-2,6-dione), were assessed in disseminated tumor models. The combinatorial effects were assessed in both tumor models sensitive to and resistant to the immunomodulatory compound. The anti-BCMA CAR T cells used in the study were produced as described in Example 1.
# The effects of anti-BCMA CAR-T cells in combination with Compound A was assessed in a murine orthotopic tumor model using DF-15(R) cells, which is a tumor model that is resistant to the immunomodulatory compound. Mice (NOD.Cg-Prkdc^scidIL-2rg^tm1Wj1/SzJ mice (NSG; Jackson Labs)) were injected intravenously (i.v.) with 2×10^6 DF-15(R) (multiple myeloma) cells transfected with firefly luciferase ([…]). Tumor engraftment was allowed to occur for 13 days prior to staging (14 days before CAR-T cell administration) and verified using bioluminescence imaging.
# In one study, mice were administered Compound A (1 mg/kg or 3 mg/kg) via oral administration once a day starting from the day before administration of 0.5×10^6 anti-BCMA CAR T cells, and administration of Compound A was continued once a day until 32 days post-CAR T cell administration (concurrent dosing). […]
# For bioluminescence imaging (BLI), mice received intraperitoneal (i.p.) injections of luciferin substrate (CaliperLife Sciences, Hopkinton, Mass.) resuspended in PBS (15 μg/g body weight). The average radiance (p/s/cm^2/sr) was determined. Survival of mice treated as described above were assessed and compared over time post-infusion of CAR-expressing T cells. […]
# The numbers of CD3+ CAR T cells were determined in the blood at day 6 and day 14 by flow cytometry using antibodies directed against CD3 and the surrogate marker on the CAR-expressing cells.
# CAR-expressing T cells = assay: Prolonged treatment: long-term proliferative potential of CAR-expressing T cells; assay type: cell-based; set-up: long term product performance: dose or concentration left out as unconfirmed
# [3] = Example 3: day 7, Compound A 1 or 10 nM, Compound B 0.1 or 1 nM
# [4] = Example 7: day 7, lenalidomide 1000 nM, Compound A 0.1, 1 or 10 nM, FIG. 8
# Chain of CRBN (Q96SW2 whole entry, species assumed): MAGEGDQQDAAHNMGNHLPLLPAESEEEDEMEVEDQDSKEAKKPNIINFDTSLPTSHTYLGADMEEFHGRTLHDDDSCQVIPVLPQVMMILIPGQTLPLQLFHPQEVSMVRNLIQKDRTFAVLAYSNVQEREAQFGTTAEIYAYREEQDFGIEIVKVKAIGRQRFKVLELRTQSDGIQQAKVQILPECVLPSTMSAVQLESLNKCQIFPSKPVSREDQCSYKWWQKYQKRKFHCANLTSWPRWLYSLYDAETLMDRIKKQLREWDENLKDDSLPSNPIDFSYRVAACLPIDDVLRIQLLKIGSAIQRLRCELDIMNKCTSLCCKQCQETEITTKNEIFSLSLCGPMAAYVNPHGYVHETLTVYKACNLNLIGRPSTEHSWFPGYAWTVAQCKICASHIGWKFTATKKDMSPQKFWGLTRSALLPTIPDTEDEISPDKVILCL
smiles,measurement,setting,value
"O=C1CC[C@H](N2Cc3c(OCc4ccc(CN5CCOCC5)cc4)cccc3C2=O)C(=O)N1 [Compound A, (S)-3-[4-(4-morpholin-4-ylmethyl-benzyloxy)-1-oxo-1,3-dihydro-isoindol-2-yl]-piperidine-2,6-dione]",count of anti-BCMA CAR T cells,anti-BCMA CAR T cells; [3],increased
same,viability of anti-BCMA CAR T cells,anti-BCMA CAR T cells; [3],increased
same,count of anti-BCMA CAR T cells,anti-BCMA CAR T cells; [4],increased
same,viability of anti-BCMA CAR T cells,anti-BCMA CAR T cells; [4],increased
same,cytolytic activity,"[1]; Compound A 1 or 10 nM, FIG. 11A",increased cytolytic activity
same,"cytokine production (IFN-gamma, IL-2, TNF-alpha)",[1]; FIG. 11B-D,increased
same,binding to CRBN,CRBN,binds more potently
same,tumor burden (BLI) versus anti-BCMA CAR T cells alone,"[2]; concurrent dosing, 1 or 3 mg/kg oral, FIG. 7A",reduce tumor burden
same,survival versus anti-BCMA CAR T cells alone,"[2]; concurrent dosing, FIG. 7B",improve survival
same,numbers of CD3+ CAR+ T cells in the blood,"[2]; concurrent regimen, low and high dose, day 6 and day 14, FIG. 7C",statistically significant increase
same,long term product performance,CAR-expressing T cells; higher concentrations,detrimental
same,long-term proliferative potential of CAR-expressing T cells,"CAR-expressing T cells; prolonged treatment, 10 or 100 nM",increase long-term proliferative potential
